The target in this test is T1, human PTH-1 receptor (Homo sapiens, UniProt Q03431).
T1 construct: expressed in transfected cells; host or cells: HEK-293
T1 sequence (Q03431 27-593): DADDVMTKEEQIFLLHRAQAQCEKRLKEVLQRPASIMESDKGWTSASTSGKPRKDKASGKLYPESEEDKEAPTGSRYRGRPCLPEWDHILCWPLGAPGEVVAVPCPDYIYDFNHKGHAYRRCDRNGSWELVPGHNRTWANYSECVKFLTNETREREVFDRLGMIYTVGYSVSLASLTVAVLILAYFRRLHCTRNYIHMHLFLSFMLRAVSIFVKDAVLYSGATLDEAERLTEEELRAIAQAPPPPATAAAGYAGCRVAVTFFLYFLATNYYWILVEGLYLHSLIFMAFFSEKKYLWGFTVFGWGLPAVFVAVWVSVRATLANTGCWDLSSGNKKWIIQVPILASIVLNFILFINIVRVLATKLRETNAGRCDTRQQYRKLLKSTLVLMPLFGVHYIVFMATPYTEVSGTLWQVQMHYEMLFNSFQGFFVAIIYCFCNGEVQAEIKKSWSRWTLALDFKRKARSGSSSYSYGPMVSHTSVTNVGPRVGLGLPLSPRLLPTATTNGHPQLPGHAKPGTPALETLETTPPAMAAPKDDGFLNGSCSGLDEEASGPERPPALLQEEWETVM
Put plainly: Reporter gene assay (CRE-luciferase) for agonist activity in transiently transfected HEK-293 cells. Format: cell-based. The following applies: for hPTHR-2/hPTHR-1: Table 3, selectivity for hPTH-1 receptor over hPTH-2 receptor. In outline: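 HEK-293 cells transiently transfected with SV40-driven human PTH-1 receptor and CRE-luciferase reporter, exposed to serial compound dilutions for 4-5 h, then lysed for luciferase readout; efficacy and EC50 by non-linear regression, PTH (1-34) as internal control, n≥3. Selectivity measured in analogous human PTH-2 receptor luciferase reporter assays.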

Structures are written as SMILES. Non-standard residues stand in square brackets, D forms with d. Residues, ends and D or L forms follow the SMILES beside them. 1Nal = N[C@@H](Cc1cccc2ccccc12)C(=O)O; 2Nal = N[C@@H](Cc1ccc2ccccc2c1)C(=O)O; β3hI = CC[C@H](C)[C@H](N)CC(=O)O; β3hF = N[C@H](CC(=O)O)Cc1ccccc1; hSer = N[C@@H](CCO)C(=O)O; Nle = CCCC[C@H](N)C(=O)O; β3hA = C[C@H](N)CC(=O)O; Aib = CC(C)(N)C(=O)O

Regarding `CCCC[C@H](NC(=O)[C@H](CC(C)C)NC(=O)[C@H](CCC(N)=O)NC(=O)[C@@H](NC(=O)[C@H](CCC(=O)O)NC(=O)[C@H](CO)NC(=O)[C@@H](NC(=O)[C@@H](N)CO)C(C)C)[C@@H](C)CC)C(=O)N[C@@H](Cc1c[nH]cn1)C(=O)N[C@@H](CO)C(=O)N[C@@H](CC(C)C)C(=O)NCC(=O)N[C@@H](CCCCN)C(=O)N[C@@H](Cc1c[nH]cn1)C(=O)N[C@@H](CC(C)C)C(=O)N[C@@H](CCCCN)C(=O)N[C@@H](CO)C(=O)N[C@H](CC(=O)N[C@@H](CCC(=O)O)C(=O)N[C@@H](CCCNC(=N)N)C(=O)N[C@H](C(=O)N[C@@H](CCC(=O)O)C(=O)N[C@@H](Cc1cccc2ccccc12)C(=O)N[C@@H](CC(C)C)C(=O)N[C@@H](CCCNC(=N)N)C(=O)N[C@@H](CCCCN)C(=O)N[C@@H](CC(C)C)C(=O)N[C@@H](CC(C)C)C(=O)N[C@@H](CCC(N)=O)C(=O)N[C@@H](CCCNC(=N)N)C(=O)N[C@H](C(=O)N[C@@H](Cc1c[nH]cn1)C(=O)N[C@@H](CCC(=O)O)C(=O)N[C@@H](Cc1ccccc1)C(N)=O)C(C)C)C(C)C)[C@@H](C)CC` [SEQ ID NO: 40, [Nle^8, Ser^10, Lys^16, β-hIle^18,1-Nal^23, Leu^27, Arg^30, Glu^33] hPTH(1-34)-NH2] (H-SVSEIQL[Nle]HSLGKHLKS[β3hI]ERVE[1Nal]LRKLLQRVHEF-NH2), it took 120 pM to reach a half-maximal effect (EC50). Further, the hPTHR-2/hPTHR-1 (ratio of EC50 values) was 69. For `CCCC[C@H](NC(=O)[C@H](CC(C)C)NC(=O)[C@H](CCC(N)=O)NC(=O)[C@@H](NC(=O)[C@H](CCC(=O)O)NC(=O)[C@H](CO)NC(=O)[C@@H](NC(=O)C(C)(C)N)C(C)C)[C@@H](C)CC)C(=O)N[C@@H](Cc1c[nH]cn1)C(=O)N[C@@H](CC(N)=O)C(=O)N[C@@H](CC(C)C)C(=O)NCC(=O)N[C@@H](CCCCN)C(=O)N[C@@H](Cc1c[nH]cn1)C(=O)N[C@@H](CC(C)C)C(=O)N[C@@H](CC(N)=O)C(=O)N[C@@H](CO)C(=O)N[C@H](CC(=O)N[C@@H](CCC(=O)O)C(=O)N[C@@H](CCCNC(=N)N)C(=O)N[C@H](C(=O)N[C@@H](CCC(=O)O)C(=O)N[C@@H](Cc1cccc2ccccc12)C(=O)N[C@@H](CC(C)C)C(=O)N[C@@H](CCCNC(=N)N)C(=O)N[C@@H](CCCCN)C(=O)N[C@@H](CC(C)C)C(=O)N[C@@H](CC(C)C)C(=O)N[C@@H](CCC(N)=O)C(=O)N[C@@H](CC(=O)O)C(=O)N[C@H](C(=O)N[C@@H](Cc1c[nH]cn1)C(=O)N[C@@H](CC(N)=O)C(=O)N[C@@H](Cc1ccccc1)C(N)=O)C(C)C)C(C)C)Cc1ccccc1` [SEQ ID NO: 42, [Aib^1, Nle^8, β-hPhe^18,1-Nal^23, Leu^27 hPTH (1-34)-NH2] (H-[Aib]VSEIQL[Nle]HNLGKHLNS[β3hF]ERVE[1Nal]LRKLLQDVHNF-NH2; N-terminus assumed), in that order: 60 pM and 88. For `CCCC[C@H](NC(=O)[C@H](CC(C)C)NC(=O)[C@H](CCC(N)=O)NC(=O)[C@@H](NC(=O)[C@H](CCC(=O)O)NC(=O)[C@H](CO)NC(=O)[C@@H](NC(=O)[C@@H](N)CO)C(C)C)[C@@H](C)CC)C(=O)N[C@@H](Cc1c[nH]cn1)C(=O)N[C@@H](CC(N)=O)C(=O)N[C@@H](CC(C)C)C(=O)NCC(=O)N[C@@H](CCCCN)C(=O)N[C@@H](Cc1c[nH]cn1)C(=O)N[C@@H](CC(C)C)C(=O)N[C@@H](CC(N)=O)C(=O)N[C@@H](CO)C(=O)N[C@H](CC(=O)N[C@@H](CCC(=O)O)C(=O)N[C@@H](CCCNC(=N)N)C(=O)N[C@H](C(=O)N[C@@H](CCC(=O)O)C(=O)N[C@@H](Cc1cccc2ccccc12)C(=O)N[C@@H](CC(C)C)C(=O)N[C@@H](CCCNC(=N)N)C(=O)N[C@@H](CCCCN)C(=O)N[C@@H](CC(C)C)C(=O)N[C@@H](CC(C)C)C(=O)N[C@@H](CCC(N)=O)C(=O)N[C@@H](CC(=O)O)C(=O)N[C@H](C(=O)N[C@@H](Cc1c[nH]cn1)C(=O)N[C@@H](CC(N)=O)C(=O)N[C@@H](Cc1ccccc1)C(N)=O)C(C)C)C(C)C)Cc1ccccc1` [SEQ ID NO: 46, [Nle^8, β-hPhe^18,1-Nal^23, Leu^27] hPTH (1-34)-NH2] (H-SVSEIQL[Nle]HNLGKHLNS[β3hF]ERVE[1Nal]LRKLLQDVHNF-NH2), in that order: 110 pM and 94. For `CCCC[C@H](NC(=O)[C@H](CC(C)C)NC(=O)[C@H](CCC(N)=O)NC(=O)[C@@H](NC(=O)[C@H](CCC(=O)O)NC(=O)[C@H](CO)NC(=O)[C@@H](NC(=O)C(C)(C)N)C(C)C)[C@@H](C)CC)C(=O)N[C@@H](Cc1c[nH]cn1)C(=O)N[C@@H](CC(N)=O)C(=O)N[C@@H](CC(C)C)C(=O)NCC(=O)N[C@@H](CCCCN)C(=O)N[C@@H](Cc1c[nH]cn1)C(=O)N[C@@H](CC(C)C)C(=O)N[C@@H](CC(N)=O)C(=O)N[C@H](CC(=O)N[C@@H](CCOC)C(=O)N[C@@H](CCC(=O)O)C(=O)N[C@@H](CCCNC(=N)N)C(=O)N[C@H](C(=O)N[C@@H](CCC(=O)O)C(=O)N[C@@H](Cc1cccc2ccccc12)C(=O)N[C@@H](CC(C)C)C(=O)N[C@@H](CCCNC(=N)N)C(=O)N[C@@H](CCCCN)C(=O)N[C@@H](CC(C)C)C(=O)N[C@@H](CC(C)C)C(=O)N[C@@H](CCC(N)=O)C(=O)N[C@@H](CC(=O)O)C(=O)N[C@H](C(=O)N[C@@H](Cc1c[nH]cn1)C(=O)N[C@@H](CC(N)=O)C(=O)N[C@@H](Cc1ccccc1)C(N)=O)C(C)C)C(C)C)Cc1ccccc1` [SEQ ID NO: 48, [Aib^1, Nle^8, β-hPhe^17, hSer(OMe)^18,1-Nal^23, Leu^27] hPTH-(1-34)-NH2] (H-[Aib]VSEIQL[Nle]HNLGKHLN[β3hF][hSer](Me)ERVE[1Nal]LRKLLQDVHNF-NH2) the same measures were 100 pM and 1152. Molecule `CCCC[C@H](NC(=O)[C@H](CC(C)C)NC(=O)[C@H](CCC(N)=O)NC(=O)[C@@H](NC(=O)[C@H](CCC(=O)O)NC(=O)[C@H](CO)NC(=O)[C@@H](NC(=O)C(C)(C)N)C(C)C)[C@@H](C)CC)C(=O)N[C@@H](Cc1c[nH]cn1)C(=O)N[C@@H](CCC(=O)O)C(=O)N[C@@H](CC(C)C)C(=O)NCC(=O)N[C@@H](CCCCN)C(=O)N[C@@H](Cc1c[nH]cn1)C(=O)N[C@@H](CC(C)C)C(=O)N[C@@H](CCCCN)C(=O)N[C@@H](CO)C(=O)N[C@H](CC(=O)N[C@@H](CCC(=O)O)C(=O)N[C@@H](CCCNC(=N)N)C(=O)N[C@H](C(=O)N[C@@H](CCC(=O)O)C(=O)N[C@@H](Cc1cccc2ccccc12)C(=O)N[C@@H](CC(C)C)C(=O)N[C@@H](CCCNC(=N)N)C(=O)N[C@@H](CCCCN)C(=O)N[C@@H](CC(C)C)C(=O)N[C@@H](CC(C)C)C(=O)N[C@@H](CCC(N)=O)C(=O)N[C@@H](CCC(=O)O)C(=O)N[C@H](C(=O)N[C@@H](Cc1c[nH]cn1)C(=O)N[C@@H](CCC(=O)O)C(=O)N[C@@H](CCCCN)C(N)=O)C(C)C)C(C)C)[C@@H](C)CC` [SEQ ID NO: 50, [Aib^1, Nle^8, Glu^10, Lys^16, β-hIle^18,1-Nal^23, Leu^27, Glu^30, Glu^33, Lys^34] hPTH(1-34)-NH2] (H-[Aib]VSEIQL[Nle]HELGKHLKS[β3hI]ERVE[1Nal]LRKLLQEVHEK-NH2; N-terminus assumed) came in with an EC50 of 40 pM. The hPTHR-2/hPTHR-1 (ratio of EC50 values) was found to be 22. Turning to `CCCC[C@H](NC(=O)[C@H](CC(C)C)NC(=O)[C@H](CCC(N)=O)NC(=O)[C@@H](NC(=O)[C@H](CCC(=O)O)NC(=O)[C@H](CO)NC(=O)[C@@H](NC(=O)[C@@H](N)CO)C(C)C)[C@@H](C)CC)C(=O)N[C@@H](Cc1c[nH]cn1)C(=O)N[C@@H](CC(N)=O)C(=O)N[C@@H](CC(C)C)C(=O)NCC(=O)N[C@@H](CCCCN)C(=O)N[C@@H](Cc1c[nH]cn1)C(=O)N[C@@H](CC(C)C)C(=O)N[C@@H](CC(N)=O)C(=O)N[C@@H](CO)C(=O)N[C@@H](C)CC(=O)N[C@@H](CCC(=O)O)C(=O)N[C@@H](CCCNC(=N)N)C(=O)N[C@H](C(=O)N[C@@H](CCC(=O)O)C(=O)N[C@@H](Cc1ccc2ccccc2c1)C(=O)N[C@@H](CC(C)C)C(=O)N[C@@H](CCCNC(=N)N)C(=O)N[C@@H](CCCCN)C(=O)N[C@@H](CCCCN)C(=O)N[C@@H](CC(C)C)C(=O)N[C@@H](CCC(N)=O)C(=O)N[C@@H](CC(=O)O)C(=O)N[C@H](C(=O)N[C@@H](Cc1c[nH]cn1)C(=O)N[C@@H](CC(N)=O)C(=O)N[C@@H](Cc1ccccc1)C(N)=O)C(C)C)C(C)C` [SEQ ID NO: 52, [Nle^8, β-hAla^18,2-Nal^23] hPTH (1-34)-NH2] (H-SVSEIQL[Nle]HNLGKHLNS[β3hA]ERVE[2Nal]LRKKLQDVHNF-NH2), the “Selectivity hPTHR-2/hPTHR-1” value (Table 4 comparison data, ratio of EC50 values) was 215.

For the origin of these results see patent publication US20110195900A1, “PEPTIDIC PTH RECEPTOR AGONISTS” (FERRING B.V., priority 2008, published 2011).
